Motor function deficits and mitochondria impairment data for four molecules are collected here from patent publication US9186356B2, “Methods for treating frontotemporal lobar degeneration with ubiquitinated inclusions (FTLD-U)” (Academia Sinica, priority 2011, dated 2015).

Each structure is given as a SMILES string.

One series relates to FTLD-U mice. Kind of series: Motor function of FTLD-U mice treated with other autophagy inducers (FIG. 5). The format is in vivo. The settings on record: tamoxifen 80 mg/Kg s.c. once per day one week, carbamazepine 50 mg/Kg i.p. once per day two weeks, spermidine 50 mg/Kg i.p. once per day one week. On the procedure: Other autophage inducers for administration to the FTLD-U mice include tamoxifen, carbamazepine, calpastatin, minoxidial, spermidine and trehalose. […] Carbamazepine can lower inositol and IP3 levels. Calpastatin is a calpain inhibitor. Minoxidial is a K^+ATP channel opener. Spermidine can decrease ROS and increases beclin 1. The effect of trehalose is unknown. Tamoxifen (80 mg/Kg) was administered via subcutaneous injection, once per day for one week. carbamazepine (50 mg/Kg) was administered i.p. once per day for two weeks. Spermidine (50 mg/Kg) was administered i.p. once per day for one week.

The subject of a further series is ALS mice (SOD1G93A). The settings on record: cited from earlier work.

`NC(=O)N1c2ccccc2C=Cc2ccccc21` [carbamazepine]: the motor function deficits entry with FTLD-U mice is “rescued the motor function deficits”. Consider `CO[C@H]1C[C@@H]2CC[C@@H](C)[C@@](O)(O2)C(=O)C(=O)N2CCCC[C@H]2C(=O)O[C@H]([C@H](C)C[C@@H]2CC[C@@H](O)[C@H](OC)C2)CC(=O)[C@H](C)/C=C(\C)[C@@H](O)[C@@H](OC)C(=O)[C@H](C)C[C@H](C)/C=C/C=C/C=C/1C` [rapamycin], for which the mitochondria impairment result in the series with ALS mice (SOD1G93A) was “more server mitochondria impairment”.

Take `NCCCCNCCCN` [spermidine]: the motor function deficits result with FTLD-U mice is “rescued the motor function deficits”. In the case of `CC/C(=C(\c1ccccc1)c1ccc(OCCN(C)C)cc1)c1ccccc1` [tamoxifen], in the series on FTLD-U mice, the motor function deficits result is “rescued the motor function deficits”.
